From patent publication US20190134005A1 (BioMarin Pharmaceutical Inc., priority 2016, published 2019)
pIC50: −log10 of the molar value.

biological target: T1, human CGT (Homo sapiens, UniProt Q16880); assay: Assay 1: CGT Enzymatic Assay (RapidFire/MS/MS, 0.01% Tween 80); format: biochemical; details: Table 1, Compounds of Formula (I) and Formula (II); CGT enzymatic assay; read-out: IC50
T1 sequence (Q16880 21-541): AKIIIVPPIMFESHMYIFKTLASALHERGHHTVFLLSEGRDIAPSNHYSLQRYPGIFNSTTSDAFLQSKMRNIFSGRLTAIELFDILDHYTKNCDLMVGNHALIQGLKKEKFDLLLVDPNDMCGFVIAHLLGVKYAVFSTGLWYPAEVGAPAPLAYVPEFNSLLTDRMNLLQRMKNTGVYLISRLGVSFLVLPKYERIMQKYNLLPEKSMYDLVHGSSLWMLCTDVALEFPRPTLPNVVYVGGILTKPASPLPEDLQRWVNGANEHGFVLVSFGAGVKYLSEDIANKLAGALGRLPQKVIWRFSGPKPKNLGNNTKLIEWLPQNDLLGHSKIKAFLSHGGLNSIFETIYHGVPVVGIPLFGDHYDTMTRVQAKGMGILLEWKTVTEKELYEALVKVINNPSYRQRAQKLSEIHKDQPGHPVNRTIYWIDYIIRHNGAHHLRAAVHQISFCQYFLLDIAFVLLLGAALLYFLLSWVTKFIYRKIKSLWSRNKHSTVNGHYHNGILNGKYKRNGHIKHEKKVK

| SMILES | pIC50 |
| --- | --- |
| CCC[C@H]1N(c2ccc(Cl)cc2)C(=O)N(c2ccc(Cl)cc2)C1(O)c1cccc(CC)c1 (stereo partly drawn) [Compound 89-2, (5R)-1,3-bis(4-chlorophenyl)-4-(3-ethylphenyl)-4-hydroxy-5-propylimidazolidin-2-one] | > 6.00 |
| CCCC1N(c2ccc(Cl)cc2)C(=O)N(c2ccc(Cl)cc2)C1(O)c1cccc(C)c1 (stereo not drawn) [Compound 90, 1,3-bis(4-chlorophenyl)-4-hydroxy-5-propyl-4-(m-tolyl)imidazolidin-2-one] | > 6.00 |
| CCC[C@@H]1N(c2ccc(Cl)cc2)C(=O)N(c2ccc(Cl)cc2)C1(O)c1cccc(C)c1 (stereo partly drawn) [Compound 90-1, (5S)-1,3-bis(4-chlorophenyl)-4-hydroxy-5-propyl-4-(m-tolyl)imidazolidin-2-one] | > 6.00 |
| CCC[C@H]1N(c2ccc(Cl)cc2)C(=O)N(c2ccc(Cl)cc2)C1(O)c1cccc(C)c1 (stereo partly drawn) [Compound 90-2, (5R)-1,3-bis(4-chlorophenyl)-4-hydroxy-5-propyl-4-(m-tolyl)imidazolidin-2-one] | > 6.00 |
| CCC[C@@H]1N(c2ccc(Cl)cc2)C(=O)N(c2ccc(Cl)cc2)C1(O)c1cccc(OC(F)(F)F)c1 (stereo partly drawn) [Compound 91-1, (5S)-1,3-bis(4-chlorophenyl)-4-hydroxy-5-propyl-4-(3-(trifluoromethoxy)phenyl)imidazolidin-2-one] | > 6.00 |
| CCC[C@H]1N(c2ccc(Cl)cc2)C(=O)N(c2ccc(Cl)cc2)C1(O)c1cccc(OC(F)(F)F)c1 (stereo partly drawn) [Compound 91-2, (5R)-1,3-bis(4-chlorophenyl)-4-hydroxy-5-propyl-4-(3-(trifluoromethoxy)phenyl)imidazolidin-2-one] | > 6.00 |
| COC[C@@H]1N(c2ccc(Cl)cc2)C(=O)N(c2ccc(Cl)cc2)C1(O)c1cccc(C(F)(F)F)c1 (stereo partly drawn) [Compound 92-1, (5S)-1,3-bis(4-chlorophenyl)-4-hydroxy-5-(methoxymethyl)-4-(3-(trifluoromethyl)phenyl)imidazolidin-2-one] | > 6.00 |
| COC[C@H]1N(c2ccc(Cl)cc2)C(=O)N(c2ccc(Cl)cc2)C1(O)c1cccc(C(F)(F)F)c1 (stereo partly drawn) [Compound 92-2, (5R)-1,3-bis(4-chlorophenyl)-4-hydroxy-5-(methoxymethyl)-4-(3-(trifluoromethyl)phenyl)imidazolidin-2-one] | > 6.00 |
| C#Cc1cccc(C2(O)C(C)N(c3ccc(Cl)cc3)C(=O)N2c2ccc(Cl)cc2)c1 (stereo not drawn) [Compound 93, 1,3-bis(4-chlorophenyl)-4-(3-ethynylphenyl)-4-hydroxy-5-methylimidazolidin-2-one] | > 6.00 |
| CC1N(c2ccc(Cl)cc2)C(=O)N(c2ccc(Cl)cc2)C1(O)c1cccc(Br)c1 (stereo not drawn) [Compound 94, 4-(3-bromophenyl)-1,3-bis(4-chlorophenyl)-4-hydroxy-5-methylimidazolidin-2-one] | > 6.00 |
| N#Cc1cc(Cl)cc(C2(O)CN(c3ccc(Cl)cc3)C(=O)N2c2ccc(Cl)cc2)c1 (stereo not drawn) [Compound 95, 3-(1,3-bis(4-chlorophenyl)-4-hydroxy-2-oxoimidazolidin-4-yl)-5-chlorobenzonitrile] | 5.00 to 6.00 |
| CCCC1N(c2ccc(Br)cc2)C(=O)N(c2ccc(Br)cc2)C1(O)c1cccc(C)c1 (stereo not drawn) [Compound 96, 1,3-bis(4-bromophenyl)-4-hydroxy-5-propyl-4-(m-tolyl)imidazolidin-2-one] | > 6.00 |
| Cc1csc(C2(O)C(C)N(c3ccc(Br)cc3)C(=O)N2c2ccc(Br)cc2)c1 (stereo not drawn) [Compound 97, 1,3-bis(4-bromophenyl)-4-hydroxy-5-methyl-4-(4-methylthiophen-2-yl)imidazolidin-2-one] | 5.00 to 6.00 |
| O=C1N(c2ccc(Cl)cc2)CC(O)(c2cc(Cl)cc(Br)c2)N1c1ccc(Cl)cc1 (stereo not drawn) [Compound 98, 4-(3-bromo-5-chlorophenyl)-1,3-bis(4-chlorophenyl)-4-hydroxyimidazolidin-2-one] | 5.00 to 6.00 |
| CC1N(c2ccc(Cl)cc2)C(=O)N(c2ccc(Cl)cc2)C1(O)c1cccc(C#N)c1 (stereo not drawn) [Compound 99, 3-(1,3-bis(4-chlorophenyl)-4-hydroxy-5-methyl-2-oxoimidazolidin-4-yl)benzonitrile] | > 6.00 |
| CCCC1N(c2ccc(Cl)cc2)C(=O)N(c2ccc(Cl)cc2)C1(O)c1cccc(C#N)c1 (stereo not drawn) [Compound 101, 3-(1,3-bis(4-chlorophenyl)-4-hydroxy-2-oxo-5-propylimidazolidin-4-yl)benzonitrile] | > 6.00 |

The remaining lines, values ahead:

| pIC50 | SMILES |
| --- | --- |
| > 6.00 | C#Cc1cccc(C2(O)[C@H](C)N(c3ccc(Cl)cc3)C(=O)N2c2ccc(Cl)cc2)c1 (stereo partly drawn) [Compound 93-1, (5S)-1,3-bis(4-chlorophenyl)-4-(3-ethynylphenyl)-4-hydroxy-5-methylimidazolidin-2-one] |
| > 6.00 | C#Cc1cccc(C2(O)[C@@H](C)N(c3ccc(Cl)cc3)C(=O)N2c2ccc(Cl)cc2)c1 (stereo partly drawn) [Compound 93-2, (5R)-1,3-bis(4-chlorophenyl)-4-(3-ethynylphenyl)-4-hydroxy-5-methylimidazolidin-2-one] |
| > 6.00 | C[C@@H]1N(c2ccc(Cl)cc2)C(=O)N(c2ccc(Cl)cc2)C1(O)c1cccc(Br)c1 (stereo partly drawn) [Compound 94-1, (5S)-4-(3-bromophenyl)-1,3-bis(4-chlorophenyl)-4-hydroxy-5-methylimidazolidin-2-one] |
| > 6.00 | C[C@H]1N(c2ccc(Cl)cc2)C(=O)N(c2ccc(Cl)cc2)C1(O)c1cccc(Br)c1 (stereo partly drawn) [Compound 94-2, (5R)-4-(3-bromophenyl)-1,3-bis(4-chlorophenyl)-4-hydroxy-5-methylimidazolidin-2-one] |
| > 6.00 | CCC[C@@H]1N(c2ccc(Br)cc2)C(=O)N(c2ccc(Br)cc2)C1(O)c1cccc(C)c1 (stereo partly drawn) [Compound 96-1, (5S)-1,3-bis(4-bromophenyl)-4-hydroxy-5-propyl-4-(m-tolyl)imidazolidin-2-one] |
| > 6.00 | CCC[C@H]1N(c2ccc(Br)cc2)C(=O)N(c2ccc(Br)cc2)C1(O)c1cccc(C)c1 (stereo partly drawn) [Compound 96-2, (5R)-1,3-bis(4-bromophenyl)-4-hydroxy-5-propyl-4-(m-tolyl)imidazolidin-2-one] |
| 5.00 to 6.00 | Cc1csc(C2(O)[C@H](C)N(c3ccc(Br)cc3)C(=O)N2c2ccc(Br)cc2)c1 (stereo partly drawn) [Compound 97-1, (5S)-1,3-bis(4-bromophenyl)-4-hydroxy-5-methyl-4-(4-methylthiophen-2-yl)imidazolidin-2-one] |
| 5.00 to 6.00 | Cc1csc(C2(O)[C@@H](C)N(c3ccc(Br)cc3)C(=O)N2c2ccc(Br)cc2)c1 (stereo partly drawn) [Compound 97-2, (5R)-1,3-bis(4-bromophenyl)-4-hydroxy-5-methyl-4-(4-methylthiophen-2-yl)imidazolidin-2-one] |
| > 6.00 | CCC[C@@H]1N(c2ccc(Br)cc2)C(=O)N(c2ccc(Br)cc2)C1(O)c1cccc(C(F)(F)F)c1 (stereo partly drawn) [Compound 100-1, (5S)-1,3-bis(4-bromophenyl)-4-hydroxy-5-propyl-4-(3-(trifluoromethyl)phenyl)imidazolidin-2-one] |
| > 6.00 | CCC[C@H]1N(c2ccc(Br)cc2)C(=O)N(c2ccc(Br)cc2)C1(O)c1cccc(C(F)(F)F)c1 (stereo partly drawn) [Compound 100-2, (5R)-1,3-bis(4-bromophenyl)-4-hydroxy-5-propyl-4-(3-(trifluoromethyl)phenyl)imidazolidin-2-one] |
| > 6.00 | CCC[C@H]1N(c2ccc(Cl)cc2)C(=O)N(c2ccc(Cl)cc2)C1(O)c1cccc(C#N)c1 (stereo partly drawn) [Compound 101-2, 3-((5R)-1,3-bis(4-chlorophenyl)-4-hydroxy-2-oxo-5-propylimidazolidin-4-yl)benzonitrile] |
